One may read the pIC50 as −log10 of the IC50, conventionally taken in molar units. What is called fraction unbound is free concentration divided by total concentration.

pIC50: −log10 of the molar value.

Sequence of Human O-GlcNAcase (His-Tagged hOGA) (O60502 whole entry): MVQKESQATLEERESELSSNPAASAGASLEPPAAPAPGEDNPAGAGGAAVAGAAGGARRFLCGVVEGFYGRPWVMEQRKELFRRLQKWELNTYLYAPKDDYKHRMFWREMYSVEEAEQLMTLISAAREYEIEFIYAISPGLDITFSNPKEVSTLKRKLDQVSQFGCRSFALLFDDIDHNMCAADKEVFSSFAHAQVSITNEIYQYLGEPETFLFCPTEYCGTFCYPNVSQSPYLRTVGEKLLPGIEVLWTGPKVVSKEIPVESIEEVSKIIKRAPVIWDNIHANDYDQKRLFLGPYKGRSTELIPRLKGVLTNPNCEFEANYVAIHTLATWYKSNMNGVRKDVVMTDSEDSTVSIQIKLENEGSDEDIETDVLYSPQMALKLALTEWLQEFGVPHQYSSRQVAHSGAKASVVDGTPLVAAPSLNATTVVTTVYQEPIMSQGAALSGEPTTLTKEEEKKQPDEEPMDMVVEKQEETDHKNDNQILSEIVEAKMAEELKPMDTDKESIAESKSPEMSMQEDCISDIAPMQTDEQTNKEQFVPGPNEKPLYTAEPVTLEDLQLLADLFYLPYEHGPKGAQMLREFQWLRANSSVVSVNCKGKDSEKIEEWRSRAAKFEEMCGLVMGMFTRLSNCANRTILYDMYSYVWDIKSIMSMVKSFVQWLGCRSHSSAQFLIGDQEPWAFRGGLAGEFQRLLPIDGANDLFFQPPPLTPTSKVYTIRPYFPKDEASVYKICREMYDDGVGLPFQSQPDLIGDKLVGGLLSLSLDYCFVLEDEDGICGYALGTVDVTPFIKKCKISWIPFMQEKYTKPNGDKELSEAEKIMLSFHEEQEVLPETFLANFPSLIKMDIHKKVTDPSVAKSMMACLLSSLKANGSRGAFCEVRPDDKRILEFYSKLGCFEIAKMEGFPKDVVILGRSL

The first series has as its target Human O-GlcNAcase (His-Tagged hOGA) (Homo sapiens (Human), UniProt O60502). The experiment in a line: Human O-GlcNAcase enzyme inhibition assay. It is filed as biochemical. As to conditions: His-Tagged hOGA 20 nM, FL-GlcNAc 10 μM, 60 min, room temperature, pH 6.5; read-out: Enzymatic OGA IC50. On the procedure:
Example B01: Human O-GlcNAcase enzyme inhibition assay
5 μl of the appropriate concentration of a solution of inhibitor in McIlvaine's Buffer (pH 6.5) in 2% DMSO (for a dose response curve calculation) is added into each well of a 384-well plate (Greiner, 781900). Then, 20 nM of His-Tagged hOGA and 10 μM of FL-GlcNAc (Fluorescein mono-beta-D-(2-deoxy-2-N-acetyl) glucopyranoside; Marker Gene Technologies Inc, M1485) were added to the 384-well plate for a final volume of 20 μl. After incubation for 60 min at room temperature, the reaction was terminated by the addition of 10 μL of stop buffer (200 mM glycine, pH 10.75).
As to `Cc1nc2cc(C(C)N3CCN(c4ccc(S(C)(=N)=O)cc4)CC3)ccc2s1` (racemic) [Example 50, imino(methyl)(4-(4-(1-(2-methylbenzo[d]thiazol-5-yl)ethyl)piperazin-1-yl)phenyl)-λ^6-sulfanone], the pIC50 was greater than 7.30.

As to `CCS(=N)(=O)c1cnc(N2CCN(C(C)c3ccc4sc(C)nc4c3)CC2)nc1` (racemic) [Example 43, ethyl(imino)(2-(4-(1-(2-methylbenzo[d]thiazol-5-yl)ethyl)piperazin-1-yl)pyrimidin-5-yl)-λ^6-sulfanone], the pIC50 is greater than 7.30.

`CCCS(=N)(=O)c1cnc(N2CCN(C(C)c3ccc4scnc4c3)CC2)nc1` (racemic) [Example 24, (2-(4-(1-(benzo[d]thiazol-5-yl)ethyl)piperazin-1-yl)pyrimidin-5-yl)(imino)(propyl)-λ^6-sulfanone]: the pIC50 is greater than 7.30.

Turning to `CC(c1ccc2c(c1)OCC2)N1CCN(c2ncc(S(C)(=N)=O)cn2)CC1` (single isomer, unassigned) [Example 16, (2-(4-((S)-1-(2,3-dihydrobenzofuran-6-yl)ethyl)piperazin-1-yl)pyrimidin-5-yl)(imino)(methyl)-λ^6-sulfanone or (2-(4-((R)-1-(2,3-dihydrobenzofuran-6-yl)ethyl)piperazin-1-yl)pyrimidin-5-yl)(imino)(methyl)-λ^6-sulfanone], the pIC50 is greater than 7.30.

On to `CC(c1ccc2scnc2c1)N1CCN(c2ncc3c(n2)CCS(=N)(=O)C3)CC1` (racemic) [Example 59, 2-(4-(1-(benzo[d]thiazol-5-yl)ethyl)piperazin-1-yl)-6-imino-5,6,7,8-tetrahydro-6λ^4-thiopyrano[4,3-d]pyrimidine 6-oxide], for which the pIC50 was greater than 7.30.

As for `CN=S(C)(=O)c1cnc(N2CCN(C(C)c3ccc4scnc4c3)CC2)nc1` (racemic) [Example 25, (2-(4-(1-(benzo[d]thiazol-5-yl)ethyl)piperazin-1-yl)pyrimidin-5-yl)(methyl)(methylimino)-λ^6-sulfanone], the pIC50 is greater than 7.30.

Take `CC(c1ccc2scnc2c1)N1CCN(c2ncc(N=S(C)(C)=O)cn2)CC1` (racemic) [Example 31, ((2-(4-(1-(benzo[d]thiazol-5-yl)ethyl)piperazin-1-yl)pyrimidin-5-yl)imino)dimethyl-λ^6-sulfanone]: the pIC50 is greater than 7.30.

Regarding `CC(c1ccc2c(c1)OCC2)N1CCN(c2ncc(N=S(C)(C)=O)cn2)CC1` (racemic) [Example 9], the negative-log IC50 (pIC50) was greater than 7.30.

With `CC(c1ccc2scnc2c1)N1CCN(c2ncc(S(C)(=N)=O)cn2)CC1` (single isomer, unassigned) [Example 39, (R)-(2-(4-(1-(benzo[d]thiazol-5-yl)ethyl)piperazin-1-yl)pyrimidin-5-yl)(imino)(methyl)-λ^6-sulfanone or (S)-(2-(4-(1-(benzo[d]thiazol-5-yl)ethyl)piperazin-1-yl)pyrimidin-5-yl)(imino)(methyl)-λ^6-sulfanone], the pIC50 was greater than 7.30.

On to `CC(c1ccc2nccnc2c1)N1CCN(c2ncc(S(C)(=N)=O)cn2)CC1` (racemic) [Example 57, imino(methyl)(2-(4-(1-(quinoxalin-6-yl)ethyl)piperazin-1-yl)pyrimidin-5-yl)-λ^6-sulfanone], for which the pIC50 was 6.70 to 7.30.

As for `Cc1nc2cc(C(C)N3CCN(c4ncc(S(C)(=N)=O)cn4)CC3)ccc2s1` (single isomer, unassigned) [Example 54], the pIC50 is 5.00 to 6.00.

For `CCCS(=N)(=O)c1cnc(N2CCN(C(C)c3ccc4sc(C)nc4c3)CC2)nc1` (racemic) [Example 44, Imino(2-(4-(1-(2-methylbenzo[d]thiazol-5-yl)ethyl)piperazin-1-yl)pyrimidin-5-yl)(propyl)-λ^6-sulfanone], the pIC50 is greater than 7.30.

Consider `CC(c1ccc2scnc2c1)N1CCN(c2ncc(S(C)(=N)=O)cn2)CC1` (single isomer, unassigned) [Example 40], for which the pIC50 was 5.00 to 6.00.

Take `CN=S(C)(=O)c1ccc(N2CCN(C(C)c3ccc4scnc4c3)CC2)nc1` (racemic) [Example 30, (6-(4-(1-(benzo[d]thiazol-5-yl)ethyl)piperazin-1-yl)pyridin-3-yl)(methyl)(methylimino)-λ^6-sulfanone]: the pIC50 is 6.70 to 7.30.

Consider `CC(c1ccc2c(c1)OCC2)N1CCN(c2ncc(S(C)(=N)=O)cn2)CC1` (single isomer, unassigned) [Example 13], for which the negative-log IC50 (pIC50) was 6.00 to 6.70.

As for `CC(C)N=S(C)(=O)c1cnc(N2CCN(C(C)c3ccc4c(c3)OCC4)CC2)nc1` (single isomer, unassigned) [Example 19], the pIC50 was greater than 7.30.

On to `CC(c1ccc2c(c1)OCC2)N1CCN(c2ncc(S(C)(=N)=O)cn2)CC1` (single isomer, unassigned) [Example 15], for which the pIC50 is 5.00 to 6.00.

Take `CC(C)N=S(C)(=O)c1cnc(N2CCN(C(C)c3ccc4scnc4c3)CC2)nc1` (racemic) [Example 28, (2-(4-(1-(benzo[d]thiazol-5-yl)ethyl)piperazin-1-yl)pyrimidin-5-yl)(isopropylimino)(methyl)-λ^6-sulfanone]: the pIC50 was 6.70 to 7.30.

`Cc1nc2cc(C(C)N3CCN(c4ncc5c(n4)CCS(=N)(=O)C5)CC3)ccc2s1` (racemic) [Example 58, 6-imino-2-(4-(1-(2-methylbenzo[d]thiazol-5-yl)ethyl)piperazin-1-yl)-5,6,7,8-tetrahydro-6λ^4-thiopyrano[4,3-d]pyrimidine 6-oxide]: the pIC50 was greater than 7.30.

In the case of `CC(c1ccc2scnc2c1)N1CCN(c2ncc(S(C)(=N)=O)cn2)CC1` (single isomer, unassigned) [Example 41], the pIC50 was 5.00 to 6.00.

Take `CC(c1ccc2scnc2c1)N1CCN(c2ncc(S(C)(=N)=O)cn2)CC1` (single isomer, unassigned) [Example 38, (R)-(2-(4-(1-(benzo[d]thiazol-5-yl)ethyl)piperazin-1-yl)pyrimidin-5-yl)(imino)(methyl)-λ^6-sulfanone or (S)-(2-(4-(1-(benzo[d]thiazol-5-yl)ethyl)piperazin-1-yl)pyrimidin-5-yl)(imino)(methyl)-λ^6-sulfanone]: the pIC50 was 6.70 to 7.30.

As to `Cc1nc2cc(C(C)N3CCN(c4ncc(S(C)(=N)=O)cn4)CC3)ccc2s1` (single isomer, unassigned) [Example 52], the pIC50 is 6.00 to 6.70.

`CCN=S(C)(=O)c1cnc(N2CCN(C(C)c3ccc4c(c3)OCC4)CC2)nc1` (single isomer, unassigned) [Example 18]: the pIC50 was greater than 7.30.

Test system in a further series: not listed separately
The series can be described thus: Protein binding in mice plasma using Rapid Equilibrium Dialysis. As to conditions: male, CD1, mouse, plasma, pH 7.4, CD1 mouse plasma, 37° C. It is filed as in vitro ADME, CD1 mice. As to the method: Example B04: Protein binding in mice plasma using Rapid Equilibrium Dialysis
• CD1 Mice Plasma: pooled male, K2-EDTA ([…]2, Bioreclammation, USA • Phosphate Buffered Saline (1×PBS), pH 7.4, 100 mM (Sigma, Cat No. P4417) • RED inserts (Pierce, Cat No. 9006, 8 kDa MWCO) • Sample Analysis: LC-MS/MS Methods • Preparation of DMSO Stock Solution
From 20 mM DMSO stock solutions of reference and test compounds, 1 mM DMSO intermediate working solutions are prepared. From 1 mM intermediate working solutions, 100 μM DMSO working solutions are prepared. • Sample Preparation Procedure:
Selected plasma is brought from −20° C. to 37° C. using water bath before its use. Test solution is prepared by adding the DMSO working solution of the reference or test compound (2 μL; 100 μM) to the selected plasma (198 μL). Spiked plasma (200 μl) is transferred to sample compartment of RED insert placed in the teflon plate. 350 μl of 1×PBS is added in the buffer compartment of RED insert. The teflon plate is covered with sealing mat and agitated at 37° C. for 5 hours at 500 RPM in a Thermomixer. After incubation time, an aliquot of plasma (50 μl) from sample compartment is mixed with blank 1×PBS (50 μl). Similarly, an aliquot of buffer (50 μl) from buffer compartment is mixed with blank plasma (50 μl). Quenching solution (200 μL, acetonitrile containing internal standard tolbutamide (0.5 μg/mL)) is added and the resulting solutions are mixed using a vortex mixer and centrifuged (Eppendorf 5415, 13792 g). Supernatants are analyzed using a Mass Spectrometer. The sample (supernatant fraction, 5 μL) is injected into the LC-MS/MS instrument. • Chromatographic Conditions: LC-MS/MS: API 4000 LC-MS/MS Software: Analyst Version 1.6.1 Column Phenomenex Synergy 30*4.6*5μ Column Oven: 40° C. Mode: ESI Positive Injection volume: 5 μl Flow Rate: […] Buffer: 0.1% Formic acid in Water Method: Isocratic Method/Gradient Composition: A) 0.1% Formic acid in Water B) 0.1% Formic acid in Methanol
After the concentration of free drug and total drug has been determined by LCMS/MS, percent plasma protein binding can be calculated as follows:
[formula] Following this protocol, % fraction unbound in plasma from different species can be also measured.
Regarding `CCCS(=N)(=O)c1cnc(N2CCN(C(C)c3ccc4scnc4c3)CC2)nc1` (racemic) [Example 24, (2-(4-(1-(benzo[d]thiazol-5-yl)ethyl)piperazin-1-yl)pyrimidin-5-yl)(imino)(propyl)-λ^6-sulfanone], the fraction unbound at 5 h, 1 µM was 0.134.

In the case of `CC(c1ccc2scnc2c1)N1CCN(c2ncc3c(n2)CCS(=N)(=O)C3)CC1` (racemic) [Example 59, 2-(4-(1-(benzo[d]thiazol-5-yl)ethyl)piperazin-1-yl)-6-imino-5,6,7,8-tetrahydro-6λ^4-thiopyrano[4,3-d]pyrimidine 6-oxide], the fraction unbound at 5 h, 1 µM came to 0.0848.

Turning to `CN=S(C)(=O)c1cnc(N2CCN(C(C)c3ccc4scnc4c3)CC2)nc1` (racemic) [Example 25, (2-(4-(1-(benzo[d]thiazol-5-yl)ethyl)piperazin-1-yl)pyrimidin-5-yl)(methyl)(methylimino)-λ^6-sulfanone], the fraction unbound at 5 h, 1 µM came to 0.211.

In the case of `CC(c1ccc2scnc2c1)N1CCN(c2ncc(N=S(C)(C)=O)cn2)CC1` (racemic) [Example 31, ((2-(4-(1-(benzo[d]thiazol-5-yl)ethyl)piperazin-1-yl)pyrimidin-5-yl)imino)dimethyl-λ^6-sulfanone], the fraction unbound at 5 h, 1 µM came out at 0.229.

In the case of `CC(c1ccc2c(c1)OCC2)N1CCN(c2ncc(N=S(C)(C)=O)cn2)CC1` (racemic) [Example 9], the fraction unbound at 5 h, 1 µM is 0.376.

For `CC(c1ccc2c(c1)OCC2)N1CCN(c2ncnc3c2CS(=N)(=O)C3)CC1` (stereo not drawn) [Example 60, 4-(4-(1-(2,3-dihydrobenzofuran-6-yl)ethyl)piperazin-1-yl)-6-imino-6,7-dihydro-5H-6δ^4-thieno[3,4-d]pyrimidine 6-oxide], the fraction unbound at 5 h, 1 µM was 0.0779.

As for `CC1Cc2ccc(C(C)N3CCN(c4ncc(S(C)(=N)=O)cn4)CC3)cc2O1` (racemic) [Example 2, Imino(methyl)(2-(4-(1-(2-methyl-2,3-dihydrobenzofuran-6-yl)ethyl)piperazin-1-yl)pyrimidin-5-yl)-λ^6-sulfanone], the fraction unbound at 5 h, 1 µM worked out at 0.222.

The record behind these values is patent US11261183B2, “Sulfoximine glycosidase inhibitors” (Asceneuron SA, priority 2016, dated 2022).
